According to ChEMBL document CHEMBL1138773, “Design and synthesis of aryl diphenolic azoles as potent and selective estrogen receptor-beta ligands” (J Med Chem, 2004):

Experiments:
Estrogen receptor beta [1] = molecular target: Estrogen receptor beta (Mus musculus, UniProt O08537)
Estrogen receptor [2] = molecular target: T1, Estrogen receptor (Rattus norvegicus, UniProt P06211)
T1 sequence (P06211 whole entry): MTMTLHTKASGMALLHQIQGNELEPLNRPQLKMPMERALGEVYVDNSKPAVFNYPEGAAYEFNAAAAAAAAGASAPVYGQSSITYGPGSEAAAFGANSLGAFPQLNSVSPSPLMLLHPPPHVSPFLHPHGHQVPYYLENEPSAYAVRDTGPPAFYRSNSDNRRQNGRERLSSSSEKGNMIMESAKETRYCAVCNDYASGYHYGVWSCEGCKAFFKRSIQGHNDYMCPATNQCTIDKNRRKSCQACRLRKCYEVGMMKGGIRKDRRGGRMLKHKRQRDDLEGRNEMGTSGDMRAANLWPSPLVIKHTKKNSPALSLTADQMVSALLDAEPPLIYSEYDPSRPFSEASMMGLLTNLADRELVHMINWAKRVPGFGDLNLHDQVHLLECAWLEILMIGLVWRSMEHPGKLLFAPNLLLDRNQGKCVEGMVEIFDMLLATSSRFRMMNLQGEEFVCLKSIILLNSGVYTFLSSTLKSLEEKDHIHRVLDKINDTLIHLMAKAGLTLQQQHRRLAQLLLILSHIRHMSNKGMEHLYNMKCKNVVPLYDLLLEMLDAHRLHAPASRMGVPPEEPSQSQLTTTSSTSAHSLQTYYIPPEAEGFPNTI

Estrogen receptor beta [3] = molecular target: Estrogen receptor beta (Rattus norvegicus, UniProt Q62986)
Rattus norvegicus [4] = species on record: Rattus norvegicus; assay: Effect of combination of compound and PPT on rat vasomotor instability in terms of tail skin temperature change 15 min after naloxone injection; type: functional
Estrogen receptor [5] = molecular target: T2, Estrogen receptor (Homo sapiens, UniProt P03372)
T2 sequence (P03372 whole entry): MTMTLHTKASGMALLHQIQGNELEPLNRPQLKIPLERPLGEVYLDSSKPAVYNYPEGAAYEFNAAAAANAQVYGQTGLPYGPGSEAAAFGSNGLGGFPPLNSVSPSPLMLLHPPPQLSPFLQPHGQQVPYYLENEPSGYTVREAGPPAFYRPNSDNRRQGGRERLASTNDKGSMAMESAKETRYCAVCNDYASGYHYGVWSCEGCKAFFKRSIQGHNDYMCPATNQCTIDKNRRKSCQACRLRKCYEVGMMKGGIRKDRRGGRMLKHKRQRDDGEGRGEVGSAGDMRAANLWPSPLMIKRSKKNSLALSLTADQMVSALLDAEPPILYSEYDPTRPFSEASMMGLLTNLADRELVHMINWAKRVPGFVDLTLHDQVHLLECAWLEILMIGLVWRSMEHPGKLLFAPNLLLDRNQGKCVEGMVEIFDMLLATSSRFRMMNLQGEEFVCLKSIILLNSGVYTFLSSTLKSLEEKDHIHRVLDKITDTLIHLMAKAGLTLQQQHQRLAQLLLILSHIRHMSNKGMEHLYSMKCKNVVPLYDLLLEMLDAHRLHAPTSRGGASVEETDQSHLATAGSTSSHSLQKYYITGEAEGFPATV

Estrogen receptor beta [6] = molecular target: Estrogen receptor beta (Homo sapiens, UniProt Q92731)
Mus musculus = species on record: Mus musculus; conditions: dose 50 mg/kg
Description: Weight of mouse uterine when treated with compound at 50 mg/kg dose was determined

Estrogen receptor [7] = molecular target: T3, Estrogen receptor (Mus musculus, UniProt P19785)
T3 sequence (P19785 whole entry): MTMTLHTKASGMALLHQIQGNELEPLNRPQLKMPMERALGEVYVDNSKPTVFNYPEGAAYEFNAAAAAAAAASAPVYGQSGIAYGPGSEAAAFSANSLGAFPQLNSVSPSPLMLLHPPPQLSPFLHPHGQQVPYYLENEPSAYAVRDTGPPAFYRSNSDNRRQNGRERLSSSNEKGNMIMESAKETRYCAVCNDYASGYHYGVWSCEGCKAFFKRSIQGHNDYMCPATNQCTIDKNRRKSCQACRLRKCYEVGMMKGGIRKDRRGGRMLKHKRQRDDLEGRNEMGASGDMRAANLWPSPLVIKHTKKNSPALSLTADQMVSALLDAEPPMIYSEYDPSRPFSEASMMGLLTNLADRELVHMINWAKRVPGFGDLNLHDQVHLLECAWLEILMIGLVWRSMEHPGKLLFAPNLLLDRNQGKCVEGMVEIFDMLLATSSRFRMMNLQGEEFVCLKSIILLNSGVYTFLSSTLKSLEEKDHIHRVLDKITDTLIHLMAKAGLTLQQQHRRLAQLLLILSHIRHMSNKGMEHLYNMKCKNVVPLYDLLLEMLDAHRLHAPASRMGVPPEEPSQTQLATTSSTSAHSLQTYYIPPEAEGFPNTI

Rattus norvegicus [8] = assay: Total bone mineral density in ovariectomized rat when treated with compound at 10 mg/kg dose; type: functional
Rattus norvegicus [9] = assay: Trabecular bone mineral density in ovariectomized rat when treated with compound at 10 mg/kg dose; type: functional, Trabecula
[10] = molecular target: Estrogen receptor beta (Rattus norvegicus) (UniProt Q62986); conditions: Prostate gland
[11] = molecular target: Estrogen receptor beta (Rattus norvegicus) (UniProt Q62986); conditions: Prostate gland; remark: listed apart in the source

Sequence of Estrogen receptor beta (Homo sapiens, UniProt Q92731) (Q92731 whole entry): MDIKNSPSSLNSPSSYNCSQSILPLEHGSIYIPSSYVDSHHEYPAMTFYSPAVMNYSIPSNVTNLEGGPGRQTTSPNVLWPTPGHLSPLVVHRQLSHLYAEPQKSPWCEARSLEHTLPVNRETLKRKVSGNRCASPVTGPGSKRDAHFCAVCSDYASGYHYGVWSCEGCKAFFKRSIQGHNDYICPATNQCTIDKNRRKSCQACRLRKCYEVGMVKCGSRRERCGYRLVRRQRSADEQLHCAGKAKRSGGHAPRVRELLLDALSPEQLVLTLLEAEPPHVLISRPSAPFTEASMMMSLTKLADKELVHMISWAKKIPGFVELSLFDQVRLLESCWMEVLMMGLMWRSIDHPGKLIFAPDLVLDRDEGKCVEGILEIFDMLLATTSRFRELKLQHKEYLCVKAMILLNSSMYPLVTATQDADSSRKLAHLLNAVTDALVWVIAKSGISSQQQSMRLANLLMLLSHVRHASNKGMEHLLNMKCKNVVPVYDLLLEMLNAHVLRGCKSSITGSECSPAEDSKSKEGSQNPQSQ
Sequence of Estrogen receptor beta (Rattus norvegicus, UniProt Q62986) (Q62986 whole entry): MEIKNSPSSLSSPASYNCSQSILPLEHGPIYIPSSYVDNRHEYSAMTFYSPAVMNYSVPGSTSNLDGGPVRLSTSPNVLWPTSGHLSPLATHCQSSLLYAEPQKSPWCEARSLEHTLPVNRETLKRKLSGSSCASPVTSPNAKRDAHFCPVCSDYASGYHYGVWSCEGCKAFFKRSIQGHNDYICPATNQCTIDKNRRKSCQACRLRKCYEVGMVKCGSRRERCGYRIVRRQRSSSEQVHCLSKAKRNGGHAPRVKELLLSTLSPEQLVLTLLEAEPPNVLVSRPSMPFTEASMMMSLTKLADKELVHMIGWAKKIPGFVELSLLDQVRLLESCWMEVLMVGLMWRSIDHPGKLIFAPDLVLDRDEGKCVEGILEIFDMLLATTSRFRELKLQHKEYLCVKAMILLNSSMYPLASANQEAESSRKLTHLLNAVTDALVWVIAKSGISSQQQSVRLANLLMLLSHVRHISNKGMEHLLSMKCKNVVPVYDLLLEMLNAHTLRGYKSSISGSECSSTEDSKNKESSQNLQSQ
Sequence of Estrogen receptor beta (Rattus norvegicus) (Q62986 whole entry): as above
Sequence of Estrogen receptor beta (Mus musculus, UniProt O08537) (O08537 whole entry): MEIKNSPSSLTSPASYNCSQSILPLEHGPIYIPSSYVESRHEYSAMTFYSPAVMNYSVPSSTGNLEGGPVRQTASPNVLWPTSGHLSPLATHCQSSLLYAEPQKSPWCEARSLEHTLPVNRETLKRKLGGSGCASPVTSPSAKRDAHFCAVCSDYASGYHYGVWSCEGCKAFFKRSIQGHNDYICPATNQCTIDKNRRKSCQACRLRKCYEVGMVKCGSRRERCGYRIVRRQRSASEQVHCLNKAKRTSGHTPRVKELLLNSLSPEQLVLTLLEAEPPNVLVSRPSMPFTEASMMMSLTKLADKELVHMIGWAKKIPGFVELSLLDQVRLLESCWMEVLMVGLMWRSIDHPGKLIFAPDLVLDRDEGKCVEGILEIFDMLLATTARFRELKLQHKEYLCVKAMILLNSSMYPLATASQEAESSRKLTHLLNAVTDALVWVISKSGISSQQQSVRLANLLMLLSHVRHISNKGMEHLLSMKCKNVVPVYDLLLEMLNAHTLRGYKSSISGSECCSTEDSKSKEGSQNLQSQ

N#Cc1cc(O)cc2nc(-c3ccc(O)cc3)oc12
IC50 (Estrogen receptor beta [1]): 4.3 nM | IC50 (Estrogen receptor [2]): 362 nM | IC50 (Estrogen receptor beta [3]): 4 nM | Activity (Rattus norvegicus [4]): 2.7

Cc1cc(O)c2cccc(-c3nc4ccc(O)cc4o3)c2c1
IC50 (Estrogen receptor [5]): 163 nM | IC50 (Estrogen receptor beta [6]): 6 nM

N#Cc1cc(O)cc2nc(-c3ccc(O)cc3F)oc12
IC50 (Estrogen receptor [5]): 138 nM | IC50 (Estrogen receptor beta [6]): 2.4 nM

C=Cc1cc(O)cc2nc(-c3ccc(O)cc3F)oc12
Weight (Mus musculus): 10.3 mg

Oc1ccc(-c2nc3ccc(O)cc3o2)cc1
IC50 (Estrogen receptor [7]): 1340 nM | IC50 (Estrogen receptor beta [1]): 9.5 nM | IC50 (Estrogen receptor [2]): 821 nM | IC50 (Estrogen receptor beta [3]): 20 nM

O=C(O)c1cc(O)cc2nc(-c3ccc(O)cc3)oc12
IC50 (Estrogen receptor [5]): > 5000 nM | IC50 (Estrogen receptor beta [6]): > 5000 nM

N#Cc1cc(O)ccc1-c1noc2cc(O)ccc12
IC50 (Estrogen receptor [5]): 264 nM | IC50 (Estrogen receptor beta [6]): 12 nM

Oc1cc(Br)c2oc(-c3ccc(O)c(F)c3)nc2c1
Density (Rattus norvegicus [8]): 501.4 mg/cm3 | IC50 (Estrogen receptor [7]): 199 nM | IC50 (Estrogen receptor beta [1]): 2.7 nM | Density (Rattus norvegicus [9]): 312.34 mg/cm3 | IC50 (Estrogen receptor [2]): 171 nM | Weight [10]: 119 mg | IC50 (Estrogen receptor beta [3]): 2 nM

C=Cc1cc(O)cc2nc(-c3c(F)cc(O)cc3F)oc12
IC50 (Estrogen receptor [5]): 249 nM | Weight (Mus musculus): 10 mg | IC50 (Estrogen receptor beta [6]): 2.2 nM

N#CCc1cc(O)ccc1-c1noc2cc(O)ccc12
IC50 (Estrogen receptor [5]): 717 nM | IC50 (Estrogen receptor beta [6]): 96 nM

COC(=O)c1cc(O)cc2nc(-c3ccc(O)cc3)oc12
IC50 (Estrogen receptor [5]): > 5000 nM | IC50 (Estrogen receptor beta [6]): 356 nM

C=Cc1cc(O)cc2nc(-c3cc(F)c(O)cc3F)oc12
IC50 (Estrogen receptor [5]): 4040 nM | IC50 (Estrogen receptor beta [6]): 66 nM

CC(C)C(=O)Nc1ccc([N+](=O)[O-])c(C(F)(F)F)c1
Weight [11]: 15.2 mg

Oc1cc(/C=C\F)c2oc(-c3ccc(O)c(F)c3)nc2c1
IC50 (Estrogen receptor [5]): 376 nM | Weight (Mus musculus): 9.8 mg | IC50 (Estrogen receptor beta [6]): 3.2 nM

C=Cc1cc(O)cc2nc(-c3ccc(O)c(F)c3)oc12 [PRINABEREL]
IC50 (Estrogen receptor [7]): 746 nM | IC50 (Estrogen receptor beta [1]): 3.7 nM | IC50 (Estrogen receptor [2]): 618 nM | Weight [10]: 132 mg | IC50 (Estrogen receptor beta [3]): 3.14 nM

Oc1ccc2c(-c3nc4cc(F)c(O)cc4o3)cccc2c1
IC50 (Estrogen receptor [5]): 434 nM | IC50 (Estrogen receptor beta [6]): 46 nM

C=CCc1cc(O)cc2nc(-c3ccc(O)cc3)oc12
IC50 (Estrogen receptor [5]): 727 nM | Weight (Mus musculus): 10 mg | IC50 (Estrogen receptor beta [6]): 13 nM

Oc1ccc2c(-c3ccccc3O)noc2c1
IC50 (Estrogen receptor [5]): 3000 nM

Oc1ccc2nc(-c3ccc(O)c(F)c3)oc2c1
IC50 (Estrogen receptor [5]): 8430 nM

Oc1ccc(-c2nc3cc(O)ccc3o2)cc1
IC50 (Estrogen receptor [7]): 1630 nM | IC50 (Estrogen receptor beta [1]): 9.9 nM | IC50 (Estrogen receptor beta [3]): 2.2 nM

Oc1ccc(-c2nc3cc(O)cc(Br)c3o2)cc1
Density (Rattus norvegicus [8]): 525.51 mg/cm3 | IC50 (Estrogen receptor [7]): 132 nM | IC50 (Estrogen receptor beta [1]): 1.7 nM | Density (Rattus norvegicus [9]): 287.56 mg/cm3 | IC50 (Estrogen receptor [2]): 132 nM | IC50 (Estrogen receptor beta [3]): 1.2 nM | Activity (Rattus norvegicus [4]): 1.9

C=Cc1cc(O)cc2nc(-c3ccc(O)cc3)oc12
IC50 (Estrogen receptor [5]): 447 nM

C=CCc1cc(O)cc2nc(-c3ccc(O)cc3F)oc12
IC50 (Estrogen receptor [5]): 98 nM | IC50 (Estrogen receptor beta [6]): 3 nM

Oc1ccc(-c2noc3ccccc23)c(O)c1
IC50 (Estrogen receptor [5]): 6100 nM | IC50 (Estrogen receptor beta [6]): 718 nM

Oc1ccc(-c2nc3cc(O)cc(/C=C\Br)c3o2)c(F)c1
IC50 (Estrogen receptor [5]): 196 nM | IC50 (Estrogen receptor beta [6]): 16 nM

Oc1ccc(-c2nc3cc(O)cc(/C=C\Br)c3o2)cc1
IC50 (Estrogen receptor [5]): 4650 nM | IC50 (Estrogen receptor beta [6]): 45 nM

Oc1ccc(-c2noc3cc(O)ccc23)cc1
IC50 (Estrogen receptor [7]): 1090 nM | IC50 (Estrogen receptor beta [1]): 13 nM | IC50 (Estrogen receptor [2]): 716 nM | IC50 (Estrogen receptor beta [3]): 36 nM

C/C=C\c1cc(O)cc2nc(-c3ccc(O)cc3F)oc12
IC50 (Estrogen receptor [5]): 539 nM | IC50 (Estrogen receptor beta [6]): 23 nM

Oc1ccc2nc(-c3cccc(O)c3O)oc2c1
IC50 (Estrogen receptor [5]): 2350 nM

CCCCOc1cc(-c2nc3ccc(O)cc3o2)ccc1O
IC50 (Estrogen receptor [5]): 6240 nM | IC50 (Estrogen receptor beta [6]): 3660 nM

Oc1ccc(-c2noc3ccc(O)cc23)c(O)c1
IC50 (Estrogen receptor [5]): 4070 nM | IC50 (Estrogen receptor beta [6]): 138 nM

C/C=C\c1cc(O)cc2nc(-c3ccc(O)cc3)oc12
IC50 (Estrogen receptor [5]): 775 nM | IC50 (Estrogen receptor beta [6]): 1.42 nM

COc1c(Br)c(O)c(Br)c2nc(-c3ccc(O)c(F)c3)oc12
IC50 (Estrogen receptor [5]): 559 nM | IC50 (Estrogen receptor beta [6]): 64 nM

C=Cc1cc(O)cc2nc(-c3ccc(O)cc3C)oc12
IC50 (Estrogen receptor [5]): 1120 nM | IC50 (Estrogen receptor beta [6]): 27 nM

O/N=C/c1cc(O)ccc1-c1noc2cc(O)ccc12
IC50 (Estrogen receptor [5]): 2390 nM | IC50 (Estrogen receptor beta [6]): 383 nM

COc1cc(O)c(Br)c2nc(-c3ccc(O)c(F)c3)oc12
IC50 (Estrogen receptor [5]): 2670 nM | IC50 (Estrogen receptor beta [6]): 52 nM

O=Cc1cc(O)cc2nc(-c3ccc(O)cc3)oc12
IC50 (Estrogen receptor beta [1]): 16.5 nM | IC50 (Estrogen receptor [2]): 2250 nM | IC50 (Estrogen receptor beta [3]): 29 nM
